Experimental data as given in PMC5628579, “Potent mechanism-based sirtuin-2-selective inhibition by an in situ-generated occupant of the substrate-binding site, “selectivity pocket” and NAD^+-binding site” (Chemical Science, 2017).

Key:
SIRT1 = molecular target: T1, SIRT1 (Homo sapiens, UniProt Q96EB6); assay: Fluor de Lys SIRT1 assay
T1 sequence (Q96EB6 1-747): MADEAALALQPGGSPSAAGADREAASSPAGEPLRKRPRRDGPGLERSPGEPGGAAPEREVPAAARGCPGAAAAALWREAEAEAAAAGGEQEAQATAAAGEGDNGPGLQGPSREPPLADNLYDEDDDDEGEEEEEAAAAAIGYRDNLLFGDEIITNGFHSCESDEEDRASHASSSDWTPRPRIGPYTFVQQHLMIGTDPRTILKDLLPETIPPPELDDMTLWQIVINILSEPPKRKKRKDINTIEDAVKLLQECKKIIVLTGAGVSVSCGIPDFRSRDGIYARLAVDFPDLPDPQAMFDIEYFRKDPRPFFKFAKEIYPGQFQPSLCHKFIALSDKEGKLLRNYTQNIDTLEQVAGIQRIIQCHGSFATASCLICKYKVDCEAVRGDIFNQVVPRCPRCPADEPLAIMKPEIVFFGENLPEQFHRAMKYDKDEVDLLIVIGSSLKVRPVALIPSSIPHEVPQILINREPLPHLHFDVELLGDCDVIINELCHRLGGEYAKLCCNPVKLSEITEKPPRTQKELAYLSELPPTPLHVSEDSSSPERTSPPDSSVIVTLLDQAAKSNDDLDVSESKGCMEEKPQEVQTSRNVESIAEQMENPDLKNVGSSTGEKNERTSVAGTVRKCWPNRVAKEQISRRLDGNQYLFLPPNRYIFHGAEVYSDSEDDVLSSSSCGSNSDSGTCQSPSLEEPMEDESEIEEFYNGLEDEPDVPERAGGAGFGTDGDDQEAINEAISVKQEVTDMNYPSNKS

[1] = HPLC stability under SIRTs assay conditions; assay type: physicochemical; conditions: buffer pH 8.0, 30 °C, 0–200 min
Description: HPLC stability of 36 under SIRTs assay conditions
Compound 36 (10 μL, 0.5 mM) in DMSO/buffer (50 mM Tris/HCl, pH = 8.0, 137 mM NaCl, 2.7 mM KCl, 1 mM MgCl2) was added to selected wells, followed by 40 μL of buffer (50 mM Tris/HCl, pH = 8.0, 137 mM NaCl, 2.7 mM KCl, 1 mM MgCl2). The obtained solution was incubated at 30 °C and 250 rpm for 0, 50, 100, 150, and 200 min. At the end of each incubation time, the wells were diluted with CH3CN (50 μL, HPLC grade). The entire volume (100 μL) was transferred to a Cosmospin filter H (0.45 μm) and 20 μL of the filtrate were injected in the HPLC instrument. Column:
(90%), 30–40 min (90–10%). The peak area was determined at 220 nm. […]

H3K9Ac (SIRT1 substrate) = assay: Western blot of H3K9Ac in MDA-MB-231 cells; assay type: cell-based, human; conditions: 6 h
Description: MCF-7 and MDA-MB-231 cells were plated in 96-well plates (initial density: 1 × 10^3 cells per well) and incubated at 37 °C. After 24 h, test compound solutions (50 μL/well) of varying concentrations in medium (DMEM and Leibovitz's L-15 for MCF-7 and MDA-MB-231 cells respectively) for were added to the cells at 37 °C under 5% CO2 in air and left to react for 72 h. Thereafter, the mixtures were treated with 10 μL of AlamarBlue® (AbD Serotec, #BUF012A), incubation was continued at 37 °C for 3 h. The fluorescence in each well was measured with an ARVOTM X3 microplate reader (λex = 540 nm; λem = 590 nm). With the obtained fluorescence readings, it was possible to calculate the percentage of cell growth.
MDA-MB-231 cells (5 × 10^5 cells/2 mL/dish) were treated for 6 h with the test compounds at the indicated concentrations in the cell culture medium, before the cells were collected and extracted with SDS buffer. The protein concentrations of the lysates were determined using a BCA protein assay.
Equivalent amounts of protein from each lysate were resolved in 5–20% SDS-polyacrylamide gels and transferred onto PVDF membranes. […]
For the differentiation study, the medium was changed to DMEM supplemented with 2% FBS. After incubation with or without 36 for 72 h, the cell morphology was examined using a microscope (Olympus CKX41) and further analyzed with the Photomeasure software (Kenis Ltd.). […]

SIRT5 = molecular target: T2, SIRT5 (Homo sapiens, UniProt Q9NXA8); assay: Fluor de Lys SIRT5 assay
T2 sequence (Q9NXA8 37-310): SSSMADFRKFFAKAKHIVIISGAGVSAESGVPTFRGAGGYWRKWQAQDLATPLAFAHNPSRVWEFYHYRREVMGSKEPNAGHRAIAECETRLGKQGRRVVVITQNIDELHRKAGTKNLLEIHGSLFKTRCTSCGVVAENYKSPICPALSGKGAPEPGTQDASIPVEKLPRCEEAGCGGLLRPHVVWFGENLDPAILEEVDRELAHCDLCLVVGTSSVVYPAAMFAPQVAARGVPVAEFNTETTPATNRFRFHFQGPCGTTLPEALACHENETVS

neuro-2a (N2a) cells = assay: Neurite outgrowth assay; assay type: cell-based, mouse; conditions: 72 h, vehicle 14.22 ± 2.9%
MDA-MB-231 cells = assay: Cell growth assay (AlamarBlue), MDA-MB-231; assay type: cell-based, human; conditions: 72 h of treatment

C[C@H](NC(=O)[C@H](CCCCNC(=S)CNC(=O)c1ccccc1Nc1cccc(OCCc2ccccc2)c1)NC(=O)OCc1ccccc1)C(N)=O [Compound 36]
IC50 (SIRT1): 1.56 ± 0.06 µM
inhibition at 1 µM (SIRT1; read-out: % inhibition at 1 μM SIRT1): 29.5 ± 2.1%
HPLC stability under SIRTs assay conditions [1]: stable
H3K9Ac level (western blot) (H3K9Ac (SIRT1 substrate)): did not upregulate
inhibition at 10 µM (SIRT5; read-out: % inhibition at 10 μM SIRT5): 4 ± 2.6%
inhibition at 50 µM (SIRT5; read-out: % inhibition at 50 μM SIRT5): 10%
percentage of differentiated cells (neuro-2a (N2a) cells; 0.5 μM): 23.09 ± 3.21%
percentage of differentiated cells (neuro-2a (N2a) cells; 1 μM): 25.73 ± 1.3%
GI50 (MDA-MB-231 cells): 8.43 ± 0.24 µM
GI50 (MDA-MB-231 cells; Homo sapiens, MDA-MB-231, 72 h): 8.3 µM
